Test results from patent publication EP0423707A2, “Platinum complexes” (Bristol-Myers Squibb Company, priority 1989, dated 1991).

Columns and labels:
[1] = tested on: B16-F10 murine melanoma cells; assay: In vitro cytotoxicity, crystal violet staining after 72 hours incubation; type: cell-based
Protocol: (§1) The cytotoxic activity of the platinum complexes were evaluated in vitro using B16-F10 murine melanoma cells and HCT-116 human colon carcinoma cells. The B16-F10 cell line was maintained cultured in Eagle's Minimum Essential Medium (MEM) with Earle's salts (Gibco; Grand Island, NY) enriched with 2 millimoles of L-glutamine, 2.06 millimoles of sodium pyruvate, insulin (0.26 units/ml), penicillin/streptomycin (10 units/milliliter and 10 micrograms/milliliter, respectively), MEM non-essential amino acids (0.6% Gibco; Grand Island, NY), and 10% fetal bovine serum (Hyclone; Logan, UT). The HCT-116 cells were grown in McCoy's 5A medium (modified, Gibco; Grand Island, NY) supplemented with 2 millimoles of L-glutamine, 0.12 millimoles of L-serine, 0.17 millimoles of asparagine, 1.5 millimoles of sodium pyruvate, MEM essential amino acids (0.67%, Gibco; Grand Island, NY), MEM vitamins (0.6%, Gibco; Grand Island, NY), fetal calf serum (10%, Hyclone; Logan, UT), and penicillin/streptomycin (10 units/milliliter and 10 micrograms/milliter, respectively). Both cell lines were incubated at 37°C in 5% CO₂/balance air high-humidity incubator.
(§2) Logarithmically growing cells were then harvested by mild trypsinization, and 4000 cells were added to each well of a 96-well microtiter plate (Costar; Cambridge, MA). The plates were incubated at 37°C in 5% CO₂ overnight to permit cell attachment to the plate. The cells were then treated with a platinum complex according to the present invention, cisplatin, or iproplatin and then incubated for 72 hours. After incubating, the plates were inverted and shaken to remove media, drug, and detached cells. Formalin (10%) in phosphate buffered saline was added and the cells fixed for 10 minutes. The fixative was then removed, the plates air dried, stained with 0.0075% crystal violet for 15 minutes, washed twice, and air dried. The stain is solubilized with 0.2 milliliters of 0.2 Molar AcOH/EtOH (1:1) and optical densities determined using a Dynatech MR600 microtiter plate reader (Dynatech; Chantilly, VA). IC50 values are calculated by linear regression analysis of absorption data.
(§3) For the above described in vitro cytotoxicity studies, the compounds are dissolved or suspended, depending on their solubility, in 0.9% Sodium Chloride or 10% ethanol in 0.9% Sodium Chloride. The compounds are prepared for in vivo treatment by dissolving or suspending in water (minimal amounts of Tween 80), 0.9% Sodium Chloride, or 10% ethanol in 0.9% Sodium Chloride. Olive oil or cotton seed oil are used for in vivo studies when the compounds are oil soluble compounds (see, for example, in Table 8, an oil soluble compound in olive oil, Example 9 (2-ethylhexanoate derivative), below).

[2] = tested on: HCT-116 human colon carcinoma cells; assay: as above; type: cell-based; settings: HCT-116 cells
Protocol: as §1, §2, §3

M5076 sarcoma = assay: Activity against M5076 sarcoma, subcutaneous implant; type: in vivo, BDF1 mice; settings: Days 5, 9, 13, and 17, at the dose producing the maximum effect; for MAXIMUM % T/C: median survival time vs controls; for MAXIMUM T-C: median time for tumors to reach 1 gram relative to controls
Protocol: Platinum complexes according to the present invention were additionally evaluated for further antitumor activity against M5076 sarcoma. BDF1 mice, 8 per group, were inoculated subcutaneously with a fragment of M5076 sarcoma.
Intraperitoneal or intravenous treatment with the complexes was initiated 5 days after implant and was continued on days 9, 13, and 17 for a total of 4 treatments. From 4 to 6 doses were tested for each compound under study.
A saline treated control group and cisplatin treated groups were included in each experiment. The mice were observed daily for survivors, and the experiments terminated after 75-80 days.
Antitumor activity was determined based on a) median survival time of the drug treated mice relative to that of the controls (percent T/C) and b) the median time for tumors to reach 1 gram in drug treated mice relative to the controls (T-C). A complex was considered active if it produced a T-C greater than or equal to 13 days.
as §3

L1210 murine leukemia [3] = assay: Activity against L1210 murine leukemia, intracerebral implanted tumor; type: in vivo, CDF1 mice; settings: single intraperitoneal dose on Day 3, at the dose producing the maximum effect, median survival time vs saline controls
Protocol: (§4) The platinum complexes according to the present invention were tested for antitumor activity against L1210 murine leukemia. CDF1 mice weighing 20 grams were inoculated intraperitoneally or intracerebrally with 10⁶ or 10⁵ ascites cells of L1210 leukemia, respectively.
(§5) Drug administration was initiated the day following intra-peritoneal tumor implantation or 3 days following intracerebral implant. The complexes were administered at various dose levels by intraperitoneal injection. Groups of 4 to 6 mice were used for each dose level, and they were treated with a single dose of the complex on the treatment day. A group of 10 saline treated control mice were included in each experiment. Cisplatin and iproplatin treated groups were included as positive controls in each experiment.
(§6) The mice were weighed before treatment and again on day 5 or 6, and the average weight change was used as a measure of toxicity. The animals were observed daily for mortality, and the experiments terminated after 30 days. Antitumor activity was determined based on percent T/C, which is the ratio of the median survival time of the drug treated group to the median survival time of the saline treated control group times 100.
(§7) A complex was considered active if it produced a T/C greater than or equal to 125 percent. […]

L1210 murine leukemia [4] = assay: Activity against L1210 murine leukemia, intraperitoneal implanted tumor; type: in vivo, CDF1 mice; settings: single intraperitoneal dose on Day 1, at the dose producing the maximum effect, median survival time vs saline controls
Protocol: as §4, §5, §6, §7

P388 murine leukemia = assay: Activity against P388 murine leukemia, intravenous inoculation, oral treatment; type: in vivo, CDF1 mice; settings: administered orally (by gavage) 1 time on Day 1; at the dose producing the maximum effect; median survival time vs saline controls
Protocol: The platinum complexes according to the present invention were tested for antitumor activity against P388 murine leukemia. CDF1 mice weighing 20 grams were inoculated intravenously with 10⁶ ascites cells of P388 leukemia.
Drug administration of the platinum complexes was initiated on the day following the intravenous tumor inoculation. The complexes were administered at various dosage levels by oral gavage. Groups of 6 mice were used for each dose level, and they were treated with a single dose of the complex on the treatment day. A group of 10 saline treated control mice were included in each experiment. Cisplatin treated groups were included as positive controls in each experiment.
as §6
A complex was considered active if it produced a T/C greater than or equal to 125 percent.
For the above described in vitro cytotoxicity studies, the compounds are dissolved or suspended, depending on their solubility, in 0.9% Sodium Chloride or 10% ethanol in 0.9% Sodium Chloride. […]

Row | Compound | IC50 B16 [1] | IC50 HCT116 [2] | MAXIMUM % T/C (M5076 sarcoma; route ip) | MAXIMUM T-C (M5076 sarcoma; route ip) [days] | MAXIMUM % T/C (L1210 murine leukemia [3]) [%] | MAXIMUM % T/C (L1210 murine leukemia [4]) | MAXIMUM % T/C (M5076 sarcoma; route iv) | MAXIMUM T-C (M5076 sarcoma; route iv) [days] | MAXIMUM % T/C (P388 murine leukemia) [%]
1 | Iproplatin | 66.8-243 micrograms/milliter | 20.2-31.2 micrograms/milliter | 160+^b % | 34.5 | 157 | 143-171% |  |  | 
2 | N.N.[Cl][Pt][Cl] [Cisplatin] | 5.4-7.3 micrograms/milliter | 4.2-4.5 micrograms/milliter | 126% | 33 | 114 | 143-207% | 114-126% | 25 to 27.3 | 173
